ChEMBL document CHEMBL6103654, “Design, Biological Characterization, and Discovery of Capromorelin Derivatives as Oral Growth Hormone Secretagogue Receptor Type 1a Agonist for the Treatment of Growth Hormone Deficiency” (J Med Chem, 2025)
pEC50: −log10 of the molar value.

Experiments:
[1] = Volume of distribution in male Sprague-Dawley rat at 1 mg/kg, iv administered as single dose measured after 4 hrs; format: ADME, organism-based; conditions: in vivo
[2] = Elimination half life in male Sprague-Dawley rat at 1 mg/kg, iv administered as single dose measured after 4 hrs; format: ADME, organism-based; conditions: in vivo, read-out: beta t1/2 (converted)
[3] = Tmax in male Sprague-Dawley rat at 2 mg/kg, po administered as single dose measured after 4 hrs; format: ADME, organism-based; conditions: in vivo
[4] = Clearance in male Sprague-Dawley rat plasma at 1 mg/kg, iv administered as single dose measured after 4 hrs; format: ADME, organism-based
CHO [5] = assay: Agonist activity at human GHSR expressed in CHO cells at maximum concentration incubated for 60 min by FLIPR assay relative to control; format: cell-based; conditions: filed as agonist
[6] = Agonist activity at human GHSR expressed in CHO cells incubated for 60 min by FLIPR assay; format: cell-based; conditions: 1 h
[7] = Cmax in male Sprague-Dawley rat at 2 mg/kg, po administered as single dose measured after 4 hrs; format: ADME, organism-based; conditions: in vivo
Rattus norvegicus [8] = assay: Induction of growth hormone level in Juvenile Sprague-Dawley rat blood at 0.1 mg/kg, po administered as single dose measured after 1 hr by ELISA method (reference value: 45.2+/-12.5 ng/mL); format: functional
[9] = target: Growth hormone secretagogue receptor type 1 (Rattus norvegicus) (UniProt O08725); assay: Agonist activity at rat GHSR expressed in CHO cells at maximum concentration incubated for 60 min by FLIPR assay relative to control; format: functional, cell-based; conditions: filed as agonist
Sequence of Growth hormone secretagogue receptor type 1 (Rattus norvegicus) (O08725 whole entry): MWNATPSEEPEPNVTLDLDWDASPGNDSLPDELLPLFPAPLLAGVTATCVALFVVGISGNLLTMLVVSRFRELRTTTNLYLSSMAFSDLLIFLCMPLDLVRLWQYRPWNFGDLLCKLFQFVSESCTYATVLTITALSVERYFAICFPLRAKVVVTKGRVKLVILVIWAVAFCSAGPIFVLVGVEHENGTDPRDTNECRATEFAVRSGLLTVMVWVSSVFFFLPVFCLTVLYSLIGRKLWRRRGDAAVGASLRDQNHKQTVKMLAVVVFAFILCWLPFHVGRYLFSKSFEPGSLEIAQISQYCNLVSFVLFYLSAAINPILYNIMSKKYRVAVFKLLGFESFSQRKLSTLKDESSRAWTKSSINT

CHO [10] = assay: Agonist activity at monkey GHSR expressed in CHO cells at maximum concentration incubated for 60 min by FLIPR assay relative to control; format: cell-based; conditions: Macaca mulatta, filed as agonist
Rattus norvegicus [11] = assay: Induction of growth hormone level in Juvenile Sprague-Dawley rat blood at 0.1 mg/kg, po administered as single dose measured immediately by ELISA method (reference value: 28.5+/-8.7 ng/mL); format: functional
Rattus norvegicus [12] = assay: Induction of growth hormone level in adult Sprague-Dawley rat blood at 0.5 mg/kg, po administered as single dose measured immediately by ELISA method (reference value: 12.6+/-4.4 ng/mL); format: functional
[13] = target: Growth hormone secretagogue receptor type 1 (Rattus norvegicus, UniProt O08725); assay: Agonist activity at rat GHSR expressed in CHO cells incubated for 60 min by FLIPR assay; format: functional, cell-based
Sequence of Growth hormone secretagogue receptor type 1 (O08725 whole entry): as above

[14] = Oral bioavailability in male Sprague-Dawley rat at 2 mg/kg administered as single dose measured after 4 hrs; format: ADME, organism-based; conditions: in vivo
Rattus norvegicus [15] = assay: Induction of growth hormone level in Juvenile Sprague-Dawley rat blood by measuring AUC(0 to 40 mins) at 0.1 mg/kg, po administered as single dose by ELISA method (reference value: 20.2+/-4.3 ng/mL); format: functional, organism-based; conditions: time 4.0 hrs
Rattus norvegicus [16] = assay: Induction of growth hormone level in Juvenile Sprague-Dawley rat blood at 0.1 mg/kg, po administered as single dose measured after 10 mins by ELISA method (reference value: 23.2+/-5.6 ng/mL); format: functional
[17] = Elimination half life in male Sprague-Dawley rat at 2 mg/kg, po administered as single dose measured after 4 hrs; format: ADME, organism-based; conditions: in vivo, read-out: beta t1/2 (converted)
[18] = Agonist activity at dog GHSR expressed in CHO cells incubated for 60 min by FLIPR assay; format: cell-based; conditions: 1 h
[19] = AUC in male Sprague-Dawley rat at 2 mg/kg, po administered as single dose measured after 4 hrs; format: ADME, organism-based; conditions: in vivo
Rattus norvegicus [20] = assay: Induction of growth hormone level in adult Sprague-Dawley rat blood at 0.5 mg/kg, po administered as single dose measured after 20 mins by ELISA method (reference value: 4.9+/-1.1 ng/mL); format: functional
[21] = Agonist activity at monkey GHSR expressed in CHO cells incubated for 60 min by FLIPR assay; format: cell-based; conditions: Macaca mulatta, 1 h
Rattus norvegicus [22] = assay: Induction of growth hormone level in Juvenile Sprague-Dawley rat blood at 0.1 mg/kg, po administered as single dose measured after 20 mins by ELISA method (reference value: 29.1+/-8.6 ng/mL); format: functional
Rattus norvegicus [23] = assay: Induction of growth hormone level in adult Sprague-Dawley rat blood at 0.5 mg/kg, po administered as single dose measured after 40 mins by ELISA method (reference value: 14.4+/-6.9 ng/mL); format: functional
Rattus norvegicus [24] = assay: Induction of growth hormone level in adult Sprague-Dawley rat blood by measuring AUC(0 to 40 mins) at 0.5 mg/kg, po administered as single dose by ELISA method (reference value: 7.0+/-1.7 ng/mL); format: functional, organism-based
CHO [25] = assay: Agonist activity at dog GHSR expressed in CHO cells at maximum concentration incubated for 60 min by FLIPR assay relative to control; format: cell-based; conditions: Canis lupus familiaris, filed as agonist
Rattus norvegicus [26] = assay: Induction of growth hormone level in Juvenile Sprague-Dawley rat blood at 0.1 mg/kg, po administered as single dose measured after 2 hrs by ELISA method (reference value: 26.5+/-7.3 ng/mL); format: functional
Rattus norvegicus [27] = assay: Induction of growth hormone level in Juvenile Sprague-Dawley rat blood at 0.1 mg/kg, po administered as single dose measured after 4 hrs by ELISA method (reference value: 32.5+/-4.5 ng/mL); format: functional
Rattus norvegicus [28] = assay: Induction of growth hormone level in adult Sprague-Dawley rat blood at 0.5 mg/kg, po administered as single dose measured after 10 mins by ELISA method (reference value: 13.7+/-7.2 ng/mL); format: functional
Rattus norvegicus [29] = assay: Induction of growth hormone level in Juvenile Sprague-Dawley rat blood at 0.1 mg/kg, po administered as single dose measured after 40 mins by ELISA method (reference value: 40.1+/-11.0 ng/mL); format: functional
Rattus norvegicus [30] = assay: Induction of growth hormone level in adult Sprague-Dawley rat blood at 10 mg/kg, po administered as single dose measured after 20 mins by ELISA method (reference value: 4.9+/-1.1 ng/mL); format: functional
Rattus norvegicus [31] = assay: Induction of growth hormone level in Juvenile Sprague-Dawley rat blood at 10 mg/kg, po administered as single dose measured after 2 hrs by ELISA method (reference value: 26.5+/-7.3 ng/mL); format: functional
Rattus norvegicus [32] = assay: Induction of growth hormone level in Juvenile Sprague-Dawley rat blood at 10 mg/kg, po administered as single dose measured immediately by ELISA method (reference value: 28.5+/-8.7 ng/mL); format: functional
Rattus norvegicus [33] = assay: Induction of growth hormone level in Juvenile Sprague-Dawley rat blood by measuring AUC(0 to 40 mins) at 10 mg/kg, po administered as single dose by ELISA method (reference value: 20.2+/-4.3 ng/mL); format: functional, organism-based
Rattus norvegicus [34] = assay: Induction of growth hormone level in adult Sprague-Dawley rat blood at 10 mg/kg, po administered as single dose measured after 10 mins by ELISA method (reference value: 13.7+/-7.2 ng/mL); format: functional
Rattus norvegicus [35] = assay: Induction of growth hormone level in Juvenile Sprague-Dawley rat blood at 10 mg/kg, po administered as single dose measured after 20 mins by ELISA method (reference value: 29.1+/-8.6 ng/mL); format: functional
Rattus norvegicus [36] = assay: Induction of growth hormone level in adult Sprague-Dawley rat blood at 10 mg/kg, po administered as single dose measured after 40 mins by ELISA method (reference value: 14.4+/-6.9 ng/mL); format: functional
Rattus norvegicus [37] = assay: Induction of growth hormone level in Juvenile Sprague-Dawley rat blood at 10 mg/kg, po administered as single dose measured after 4 hrs by ELISA method (reference value: 32.5+/-4.5 ng/mL); format: functional
Rattus norvegicus [38] = assay: Induction of growth hormone level in adult Sprague-Dawley rat blood by measuring AUC(0 to 40 mins) at 10 mg/kg, po administered as single dose by ELISA method (reference value: 7.0+/-1.7 ng/mL); format: functional, organism-based
Rattus norvegicus [39] = assay: Induction of growth hormone level in Juvenile Sprague-Dawley rat blood at 10 mg/kg, po administered as single dose measured after 10 mins by ELISA method (reference value: 23.2+/-5.6 ng/mL); format: functional
Rattus norvegicus [40] = assay: Induction of growth hormone level in Juvenile Sprague-Dawley rat blood at 10 mg/kg, po administered as single dose measured after 40 mins by ELISA method (reference value: 40.1+/-11.0 ng/mL); format: functional
Rattus norvegicus [41] = assay: Induction of growth hormone level in Juvenile Sprague-Dawley rat blood at 10 mg/kg, po administered as single dose measured after 1 hr by ELISA method (reference value: 45.2+/-12.5 ng/mL); format: functional
Rattus norvegicus [42] = assay: Induction of growth hormone level in adult Sprague-Dawley rat blood at 10 mg/kg, po administered as single dose measured immediately by ELISA method (reference value: 12.6+/-4.4 ng/mL); format: functional

Compound	Vd [1] [L/kg]	half-life [2] [min]	Tmax [3] [min]	clearance [4] [mL/min/kg]	Activity (CHO [5]) [%]	pEC50 [6]	Cmax [7] [ng/mL]	Activity [9] [%]	Activity (CHO [10]) [%]	pEC50 [13]	bioavailability [14] [%]	half-life [17] [min]	pEC50 [18]	AUC at 4 h [19] [ng·h/mL]	pEC50 [21]	Activity (CHO [25]) [%]	also measured
CC(C)(N)C(=O)N[C@H](COCc1ccccc1)C(=O)N1CCC2=NOC(=O)[C@]2(Cc2ccccc2)C1	22.8	86.4	15	169	106	9.06	54	–	–	–	–	–	–	–	–	–	–
CC(C)(N)C(=O)N[C@H](COCc1ccccc1)C(=O)N1CCC2=NN(C3CC3)C(=O)[C@]2(Cc2ccccn2)C1	3.3	48	15	48	123	9.10	139	114	104	10.68	26.2	72.6	10.04	186	10.17	87.4	Activity (Rattus norvegicus [8]): 54.5 ng/mL; Activity (Rattus norvegicus [11]): 65.8 ng/mL; Activity (Rattus norvegicus [12]): 17.2 ng/mL; AUC (Rattus norvegicus [15]): 104 ng·h/mL; Activity (Rattus norvegicus [16]): 168.5 ng/mL; Activity (Rattus norvegicus [20]): 81.8 ng/mL; Activity (Rattus norvegicus [22]): 220.5 ng/mL; Activity (Rattus norvegicus [23]): 41.9 ng/mL; AUC (Rattus norvegicus [24]): 58.6 ng·h/mL; Activity (Rattus norvegicus [26]): 34.5 ng/mL; Activity (Rattus norvegicus [27]): 61.1 ng/mL; Activity (Rattus norvegicus [28]): 178.4 ng/mL; Activity (Rattus norvegicus [29]): 91.8 ng/mL
CC(C)(N)C(=O)N[C@H](COCc1ccccc1)C(=O)N1CCC2(CC1)CN(S(C)(=O)=O)c1ccccc12 [IBUTAMOREN]	–	–	–	–	–	–	–	–	–	–	–	–	–	–	–	–	Activity (Rattus norvegicus [30]): 71.3 ng/mL; Activity (Rattus norvegicus [31]): 52.4 ng/mL; Activity (Rattus norvegicus [32]): 58.1 ng/mL; AUC (Rattus norvegicus [33]): 123 ng·h/mL; Activity (Rattus norvegicus [34]): 133.9 ng/mL; Activity (Rattus norvegicus [35]): 227.8 ng/mL; Activity (Rattus norvegicus [36]): 25 ng/mL; Activity (Rattus norvegicus [37]): 61.3 ng/mL; AUC (Rattus norvegicus [38]): 45.6 ng·h/mL; Activity (Rattus norvegicus [39]): 290.9 ng/mL; Activity (Rattus norvegicus [40]): 76.3 ng/mL; Activity (Rattus norvegicus [41]): 76.2 ng/mL; Activity (Rattus norvegicus [42]): 15.4 ng/mL
CC(C)(N)C(=O)N[C@H](COCc1ccccc1)C(=O)N1CCC2=NN(C3CCC3)C(=O)[C@]2(Cc2ccccc2)C1	3.5	48	30	50.5	107	8.92	8.4	104	104	10.85	3.3	109	10.32	21.1	10.70	125	–
CC(C)(N)C(=O)N[C@H](COCc1ccccc1)C(=O)N1CCC2=NN(C(F)(F)F)C(=O)[C@]2(Cc2ccccc2)C1	16.1	178	19.8	70.9	106	9.24	219	96	103	10.92	44.8	72	10.11	214	10.21	115	–
